Article PMC7395068, “The evolution of strategies to minimise the risk of human drug-induced liver injury (DILI) in drug discovery and development” (Archives of Toxicology, 2020)
Like-named read-outs stand apart in the source and are kept apart here.

Tests used:
[1] = tested on: PHH spheroids; conditions: cited from earlier work; for hLiMTs ATP <20 x Cmax: In vitro Assay, ref Vorrink 2018
[2] = plasma free fraction; cited from earlier work
[3] = ref Chen 2011; cited from earlier work
[4] = tested on: hLiMTs; conditions: cited from earlier work
[5] = tested on: human hepatocytes; conditions: cited from earlier work; for Structural based (HCI): In vitro Assay, ref Xu 2008
[6] = tested on: HepG2 cells; conditions: cited from earlier work
[7] = Plasma free fraction (fu) and unbound Cmax (Cmax,u); format: in vitro ADME, human; conditions: unbound plasma Cmax
Procedure: The prediction of DILI severity was evaluated further using the 3D combined HCI assays using plasma-free fraction. The majority of fu values were obtained from literature, when unavailable in-house prediction was utilised. Unbound plasma Cmax concentrations (Cmax,u) were derived by multiplying total plasma Cmax with the corresponding free fraction (fu) for each compound.

[8] = read-out: Human plasma Cmax; total plasma Cmax.tot, median of 9 literature references; cited from earlier work
[9] = tested on: PHH; conditions: cited from earlier work
[10] = tested on: HepG2 cells; conditions: cited from earlier work; remark: listed apart in the source
[11] = tested on: HepG2 cells, primary human hepatocytes; conditions: In vitro Assay; ref Garside 2014; cited from earlier work
[12] = tested on: hLiMTs; test: Combined HCI (HCS) and cellular ATP 3D assay in hLiMTs
[13] = tested on: HepaRG spheroids; test: Combined HCI (HCS) and cellular ATP 3D assay in HepaRG spheroids; conditions: HepaRG; for AC50 / minimal effective concentration: Homo sapiens
[14] = tested on: hLiMTs
[15] = cited from earlier work
[16] = cited from earlier work; remark: listed apart in the source
[17] = tested on: HepaRG spheroids
[18] = tested on: PHH; conditions: In vitro Assay; ref Albrecht 2019; cited from earlier work
[19] = tested on: THLE or HepG2 cells, isolated mitochondria, BSEP; conditions: cited from earlier work
[20] = tested on: HepG2; design: method as in Albrecht 2019; conditions: In vitro Assay; ref Albrecht 2019; cited from earlier work
[21] = tested on: primary human hepatocytes, NIH3T3 fibroblasts, BSEP, CYP3A4; conditions: cited from earlier work
[22] = tested on: THLE-Null and THLE-3A4 cells; conditions: In vitro Assay; ref Gustafsson 2014; cited from earlier work
[23] = tested on: rBsep; conditions: In vitro Assay; ref Dawson 2012; cited from earlier work
[24] = In vitro Assay, ref Proctor 2017
[25] = In vitro Assay, ref Persson 2013
[26] = In vitro Assay, ref Schadt 2015

SMILES: O=C1CN(/N=C/c2ccc(-c3ccc([N+](=O)[O-])cc3)o2)C(O)=N1 [dantrolene]
- hLiMTs ATP <20 x Cmax [1]: +VE (IC20 < 20 × Cmax.tot cut-off)
- DILI in vitro assay prediction, Vorrink (2018) ([1]; PHH spheroids, ATP, 14 days, IC20 < 20 × Cmax.tot, ref Vorrink et al. 2018): +VE (IC20 < 20 × Cmax.tot cut-off)
- fu [2]: 0.140
- DILI Score (FDA) (1-8) [3]: 8
- hLiMTs ATP <100uM [4, 24]: -VE
- hLiMTs/100uM, Proctor (2017) ([4]; hLiMTs, ATP, IC50 threshold 100 µM, ref Proctor et al. 2017): -VE
- Structural based (HCI) [5]: +VE
- DILI in vitro assay prediction, Xu (2008) ([5]; Structural based (HCI), human hepatocytes, ref Xu et al. 2008): +VE
- Cluser analysis [6, 25]: -VE
- Structural based (HCI) [6, 25]: +VE
- DILI in vitro assay prediction, Persson (2013) ([6]; Structural based (HCI), HepG2, ref Persson et al. 2013): -VE
- Human plasma Cmax,u [7]: 0.552 µM
- Cmax [8]: 3.95 µM
- PHH/100uM, Proctor (2017) ([9]; 2D PHH, ATP, IC50 threshold 100 µM, ref Proctor et al. 2017): -VE
- PHH ATP <100uM [9, 24]: -VE
- Structural based (HCI) ([10]; In vitro Assay, ref O'Brien 2006): +VE
- DILI in vitro assay prediction, O'Brien (2006) ([10]; Structural based (HCI), HepG2, ref O'Brien et al. 2006): +VE (lowest HCI endpoint IC50 (or in the absence of dose–response < 100 µM) < 30 × total human plasma exposure levels (Cmax.tot))
- Cluster 1-6 +VE Assay [11]: -VE
- DILI prediction hLiMTs, HCI alone ([12]; HCS endpoints only, 25 × Cmax.tot cut-off): detection
- AC50 ([12]; Homo sapiens, read-out: HCS endpoint AC50): 51 µM
- minimal effective concentration ([12]; Homo sapiens, read-out: HCS endpoint MEC): 10.5 µM
- DILI prediction hLiMTs, ATP alone ([12]; cellular ATP only, 25 × Cmax.tot cut-off): unpredicted
- hLiMTs <25x Avg Cmax ATP ([12]; hLiMTs, ATP endpoint, cut-off <25x Avg Cmax): -ve
- hLiMTs <100x Avg Cmaxu ATP ([12]; hLiMTs, ATP endpoint, cut-off <100x Avg Cmaxu): -ve
- hLiMTs <25x Avg Cmax HCS ([12]; hLiMTs, HCS endpoints, cut-off <25x Avg Cmax): +ve
- hLiMTs <100x Avg Cmaxu HCS ([12]; hLiMTs, HCS endpoints, cut-off <100x Avg Cmaxu): +ve (<100x Avg Cmaxu)
- hLiMTs <25x Avg Cmax All ([12]; hLiMTs, all endpoints (ATP and HCS), cut-off <25x Avg Cmax): +ve
- hLiMTs Cmax max All ([12]; hLiMTs, all endpoints, Cmax max used): +ve
- hLiMTs Cmax min All ([12]; hLiMTs, all endpoints, Cmax min used): -ve
- hLiMTs <10 uM All ([12]; hLiMTs, all endpoints, cut-off <10 uM): -ve
- hLiMTs <100x Avg Cmaxu All ([12]; hLiMTs, all endpoints, cut-off <100x Avg Cmaxu): +ve (<100x Avg Cmaxu)
- HepaRG <25x Avg Cmax ATP ([13]; ATP endpoint, cut-off <25x Avg Cmax): +ve
- HepaRG <100x Avg Cmaxu ATP ([13]; ATP endpoint, cut-off <100x Avg Cmaxu): +ve (<100x Avg Cmaxu)
- HepaRG <25x Avg Cmax HCS ([13]; HCS endpoints, cut-off <25x Avg Cmax): +ve
- HepaRG <100x Avg Cmaxu HCS ([13]; HCS endpoints, cut-off <100x Avg Cmaxu): +ve (<100x Avg Cmaxu)
- HepaRG <25x Avg Cmax All ([13]; all endpoints (ATP and HCS), cut-off <25x Avg Cmax): +ve
- HepaRG Cmax max All ([13]; all endpoints, Cmax max used): +ve
- HepaRG Cmax min All ([13]; all endpoints, Cmax min used): -ve
- HepaRG <10 uM All ([13]; all endpoints, cut-off <10 uM): -ve
- HepaRG <100x Avg Cmaxu All ([13]; all endpoints, cut-off <100x Avg Cmaxu): +ve (<100x Avg Cmaxu)
- AC50 ([13]; read-out: ATP endpoint AC50): 100 µM
- minimal effective concentration ([13]; read-out: ATP endpoint MEC): 53.2 µM
- AC50 ([13]; read-out: HCS endpoint AC50): 174 µM
- minimal effective concentration ([13]; read-out: HCS endpoint MEC): 14.5 µM
- DILI prediction hLiMTs (HCS-MEC) [14]: +VE (MEC < 25 × Cmax.tot cut-off)
- Assigned DILI category ([15]; Chen et al. 2016 or literature alignment, ref Chen et al. 2016): 3
- In vivo DILI ([15]; […]): +VE
- In vivo DILI ([15]; ref Garside 2014): +VE
- In vivo DILI ([15]; ref O'Brien 2006): +VE
- In vivo DILI ([15]; ref Persson 2013): +VE
- In vivo DILI ([15]; ref Proctor 2017): +VE
- In vivo DILI ([15]; ref Vorrink 2018): +VE
- In vivo DILI ([15]; ref Williams 2019): +VE
- In vivo DILI ([15]; ref Xu 2008): +VE
- DILI severity category (Chen et al. [2016]) ([16]; LTKB DILIrank category, ref Chen et al. 2016): Most
- DILI severity category (Chen 2016) ([16]; human DILI classification, LTKB DILIrank, ref Chen et al. 2016): Most
- DILI severity category ([16]; human DILI severity, ref Chen et al.): Most
- DILI +VE (5-8), DILI -VE (-4) ([16]; ref Chen 2016): +VE
- DILI severity category ([16]; ref Chen 2016): vMost-DILI-Concern
- DILI prediction HepaRG spheroids (HCS-MEC) [17]: +VE (MEC < 25 × Cmax.tot cut-off)

SMILES: OCCOCCN1CCN(C(c2ccccc2)c2ccc(Cl)cc2)CC1 (stereo not shown) [hydroxyzine]
- Cytotoxicity PHH 48 hrs [18]: -VE
- In vivo DILI ([15]; […]): -VE
- In vivo DILI ([15]; ref Albrecht 2019): -VE
- In vivo DILI ([15]; ref Aleo 2019): -VE
- DILI +VE (5-8), DILI -VE (-4) ([16]; ref Chen 2016): -VE
- DILI severity category ([16]; ref Chen 2016): vNo-DILI-Concern
- Partition Hybrid HRM Score ([19]; In vitro Assay, ref Aleo 2019): +VE
- Ro2 Hybrid HRM Score ([19]; In vitro Assay, ref Aleo 2019): +VE
- Cytotoxicity HepG2 48 hrs [20]: -VE

SMILES: C[C@H]1COc2c(N3CCN(C)CC3)c(F)cc3c(=O)c(C(=O)O)cn1c23 [levofloxacin]
- Structural based (HCI) [5]: -VE
- Cellular toxicity (3T3 cells) [21]: -VE
- Combined Assay [21]: -VE
- GSH adduct HML [21]: -VE
- Hepatocyte cellular toxicity [21]: -VE
- MitoTox 3T3 [21]: -VE
- TDI CYP3A4 [21]: -VE
- hBSEP inhibition [21]: -VE
- Cytotoxicity PHH 48 hrs [18]: +VE
- THLE-Null [22]: -VE
- Inhibition of rBsep cutoff<1& cmax u>.2 [23]: -VE
- Inhibition of rBsep cutoff<3 [23]: -VE
- DILI +VE (5-8), DILI -VE (-4) ([16]; in vivo): +VE
- DILI severity category ([16]; in vivo): vMost-DILI-Concern
- Cytotoxicity HepG2 48 hrs [20]: +VE

SMILES: CC(CN1c2ccccc2Sc2ccccc21)N(C)C (stereo not shown) [promethazine]
- hLiMTs ATP <20 x Cmax [1]: -VE
- Structural based (HCI) [5]: -VE
- Cellular toxicity (3T3 cells) [21, 26]: +VE
- Combined Assay [21, 26]: -VE
- GSH adduct HML [21, 26]: +VE
- Hepatocyte cellular toxicity [21, 26]: -VE
- MitoTox 3T3 [21, 26]: -VE
- TDI CYP3A4 [21, 26]: -VE
- hBSEP inhibition [21, 26]: -VE
- Cytotoxicity PHH 48 hrs [18]: -VE
- In vivo DILI ([15]; ref Albrecht 2019): -VE
- In vivo DILI ([15]; ref Schadt 2015): -VE
- In vivo DILI ([15]; ref Vorrink 2018): -VE
- In vivo DILI ([15]; ref Xu 2008): -VE
- DILI +VE (5-8), DILI -VE (-4) ([16]; ref Chen 2016): +VE
- DILI severity category ([16]; ref Chen 2016): vLess-DILI-Concern
- Cytotoxicity HepG2 48 hrs [20]: -VE

SMILES: CC(C)NCC(O)COc1cccc2ccccc12 (stereo not shown) [propranolol, reference compound]
- response of PHH spheroids at 5 × Cmax.tot ([1]; ATP, 14 days, not positive at higher concentrations, ref Vorrink et al. 2018): positive
- hLiMTs ATP <20 x Cmax [1]: -VE
- Cytotoxicity PHH 48 hrs [18]: -VE
- Inhibition of rBsep cutoff<1& cmax u>.2 [23]: -VE
- Inhibition of rBsep cutoff<3 [23]: -VE
- Ro2 Hybrid HRM Score ([19]; In vitro Assay, ref Aleo 2019): -VE
- Partition Hybrid HRM Score [19]: +VE
- Cytotoxicity HepG2 48 hrs [20]: -VE
